Test results published in US20240217967A1, “INDOLINE DERIVATIVES AS DDRS INHIBITORS” (CHIESI FARMACEUTICI S.P.A., priority 2021, published 2024).
pIC50, pKi: −log10 of the molar value.

Tests used:
DDR2 = molecular target: T1, DDR2 (Homo sapiens, UniProt Q16832); assay: DDR2 LanthaScreen Europium Kinase Binding assay; settings: binding affinity; IC50 converted in Ki using Cheng-Prusoff; read-out: Ki DDR2
T1 sequence (Q16832 22-855): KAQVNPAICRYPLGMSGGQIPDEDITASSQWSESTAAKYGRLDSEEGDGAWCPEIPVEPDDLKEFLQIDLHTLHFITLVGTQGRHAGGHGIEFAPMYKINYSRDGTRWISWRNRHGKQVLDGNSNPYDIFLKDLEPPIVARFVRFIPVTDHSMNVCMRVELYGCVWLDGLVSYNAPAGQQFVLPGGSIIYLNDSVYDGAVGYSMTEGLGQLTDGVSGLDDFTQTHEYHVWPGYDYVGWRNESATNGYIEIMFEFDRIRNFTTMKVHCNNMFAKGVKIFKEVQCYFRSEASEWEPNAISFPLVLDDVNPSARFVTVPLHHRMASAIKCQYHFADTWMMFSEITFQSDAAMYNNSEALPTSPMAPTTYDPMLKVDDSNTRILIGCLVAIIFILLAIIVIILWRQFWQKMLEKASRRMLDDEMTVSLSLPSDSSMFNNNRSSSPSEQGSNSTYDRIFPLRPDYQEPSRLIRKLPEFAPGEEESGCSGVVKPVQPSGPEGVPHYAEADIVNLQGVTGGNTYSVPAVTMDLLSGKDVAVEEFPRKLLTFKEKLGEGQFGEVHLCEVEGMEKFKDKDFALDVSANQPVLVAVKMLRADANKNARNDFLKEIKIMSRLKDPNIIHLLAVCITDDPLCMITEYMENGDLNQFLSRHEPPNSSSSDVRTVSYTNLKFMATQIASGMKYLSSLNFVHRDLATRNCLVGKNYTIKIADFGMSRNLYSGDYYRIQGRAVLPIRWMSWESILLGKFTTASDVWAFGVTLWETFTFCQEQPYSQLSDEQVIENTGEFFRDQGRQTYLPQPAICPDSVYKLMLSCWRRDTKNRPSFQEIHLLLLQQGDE
Experimental: (§1) DDR1 and DDR2 binding assays were performed using Life Technologies LanthaScreen™ Europium Kinase Binding assay. The compounds were incubated with 5 nM DDR1 (Carna Biosciences) or 5 nM DDR2 (Life Technologies) for 1 hour at room temperature in white 384-well OptiPlate (PerkinElmer), containing 20 nM or 10 nM Kinase Tracer 178 respectively and 2 nM Europium labelled anti-GST antibody (Life Technologies) in assay buffer (50 mM HEPES pH 7.5, 10 mM MgCI2, 1 mM EGTA and 0.01% BRIJ35). The ratio of fluorescence emission 665 nm/615 nm after excitation at 340 nm was obtained using the Tecan Spark 20M plate reader. IC50 values were determined in GraphPad Prism 7.0 software, using 4 parameter model: log(inhibitor) vs. response. IC50 values were converted in Ki using the Cheng-Prusoff equation (Ki=IC50/(1+[Tracer]/Kd).

DDR1 [1] = molecular target: T2, DDR1 (Homo sapiens, UniProt Q08345); assay: DDR1 LanthaScreen Europium Kinase Binding assay; settings: binding affinity; IC50 converted in Ki using Cheng-Prusoff; read-out: Ki DDR1
T2 sequence (Q08345 19-913): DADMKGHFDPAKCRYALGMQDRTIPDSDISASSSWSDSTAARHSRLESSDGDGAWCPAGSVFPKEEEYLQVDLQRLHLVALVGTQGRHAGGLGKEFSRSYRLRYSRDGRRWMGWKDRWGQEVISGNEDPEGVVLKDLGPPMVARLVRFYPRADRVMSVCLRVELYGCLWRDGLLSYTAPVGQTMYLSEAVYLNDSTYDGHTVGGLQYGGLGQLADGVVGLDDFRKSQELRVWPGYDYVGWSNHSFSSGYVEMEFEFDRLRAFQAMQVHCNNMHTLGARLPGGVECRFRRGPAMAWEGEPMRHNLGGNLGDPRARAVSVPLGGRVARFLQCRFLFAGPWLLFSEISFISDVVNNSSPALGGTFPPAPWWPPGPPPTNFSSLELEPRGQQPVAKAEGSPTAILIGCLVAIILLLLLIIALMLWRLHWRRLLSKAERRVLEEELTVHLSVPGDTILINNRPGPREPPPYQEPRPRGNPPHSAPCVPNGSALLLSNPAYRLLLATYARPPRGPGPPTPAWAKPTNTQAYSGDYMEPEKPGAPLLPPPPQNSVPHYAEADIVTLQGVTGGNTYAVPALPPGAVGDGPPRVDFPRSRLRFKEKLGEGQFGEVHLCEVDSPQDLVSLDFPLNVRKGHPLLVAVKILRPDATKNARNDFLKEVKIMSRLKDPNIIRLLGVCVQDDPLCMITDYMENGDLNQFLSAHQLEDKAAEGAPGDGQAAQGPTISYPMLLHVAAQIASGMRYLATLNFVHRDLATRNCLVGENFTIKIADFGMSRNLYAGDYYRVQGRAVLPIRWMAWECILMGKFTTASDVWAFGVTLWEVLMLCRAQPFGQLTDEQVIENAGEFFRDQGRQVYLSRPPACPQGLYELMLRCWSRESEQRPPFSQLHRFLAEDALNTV
Experimental: as §1

DDR1 [2] = molecular target: T2, DDR1; assay: DDR1 cell based assay (PathHunter U2OS DDR1, collagen II stimulation); settings: U2OS-DDR1 cells, bovine Type II Collagen stimulation
Experimental: The inhibition of DDR1 receptor activation by compounds was evaluated by PathHunter® U2OS DDR1 assay (Eurofins DiscoverX), according to the manufacturer's instructions. Briefly, U2OS-DDR1 cells were seeded in white 384-well plates at a density of 5000 cells/well and incubated for 2 hours at 37° C. and 5% CO2. Cells were then treated with compounds at different concentrations and incubated for 30 minutes, before stimulation with bovine Type II Collagen 20 μg/ml and incubation overnight at 37° C. and 5% CO2. PathHunter Detection Reagents were prepared according to the protocol provided by DiscoverX and 20 μl/well of this mix were added to each well. After incubating the plates for 1 hour at room temperature in the dark, luminescence signal was acquired with a plate reader. Raw data were normalized to vehicle control (0% for normalization) and positive control (100% for normalization; cells treated with 20 μg/ml collagen II) and IC50 parameters were calculated in GraphPad Prism 8.0 software, using sigmoidal dose-response curve fitting with variable slope.

Compound	pKi (DDR2)	pKi (DDR1 [1])	pIC50 (DDR1 [2])
CN(C)Cc1cc(NC(=O)c2ccc3c(c2)N(Cc2cnc4cnccn24)CC3)cc(C(F)(F)F)c1 [Example 51, N-(3-((dimethylamino)methyl)-5-(trifluoromethyl)phenyl)-1-(imidazo[1,2-a]pyrazin-3-ylmethyl)indoline-6-carboxamide]	> 7.60	> 7.60	7.30 to 7.60
O=C(Nc1cc(F)cc(C(F)(F)F)c1)c1ccc2c(c1)N(Cc1cnc3cnccn13)CC2 [Example 41, N-(3-fluoro-5-(trifluoromethyl)phenyl)-1-(imidazo[1,2-a]pyrazin-3-ylmethyl)indoline-6-carboxamide]	> 7.60	> 7.60	7.30 to 7.60
Cc1cn(-c2cc(NC(=O)c3ccc4c(c3)N(Cc3cnc5[nH]ncc5c3)CC4C)cc(C(F)(F)F)c2)cn1 (stereo not drawn) [Example 24, 1-((1H-pyrazolo[3,4-b]pyridin-5-yl)methyl)-3-methyl-N-(3-(4-methyl-1H-imidazol-1-yl)-5-(trifluoromethyl)phenyl)indoline-6-carboxamide]	7.30 to 7.60	7.30 to 7.60	> 7.60
Cc1n[nH]c2ncc(CN3CCc4ccc(C(=O)Nc5cncc(C(F)(F)F)c5)cc43)cc12 [Example 71, 1-((3-methyl-1H-pyrazolo[3,4-b]pyridin-5-yl)methyl)-N-(5-(trifluoromethyl)pyridin-3-yl)indoline-6-carboxamide]	> 7.60	> 7.60	> 7.60
Cc1cn(-c2cc(C(=O)Nc3ccc4c(c3)N(C(=O)c3cnc5ccccn35)CC4)cc(C(F)(F)F)c2)cn1 [Example 19, N-(1-(imidazo[1,2-a]pyridine-3-carbonyl)indolin-6-yl)-3-(4-methyl-1H-imidazol-1-yl)-5-(trifluoromethyl)benzamide]	> 7.60	> 7.60	7.30 to 7.60
O=C(Nc1cc(OCCN2CCOCC2)cc(C(F)(F)F)c1)c1ccc2c(c1)N(Cc1cnc3cnccn13)CC2 [Example 53, 1-(imidazo[1,2-a]pyrazin-3-ylmethyl)-N-(3-(2-morpholinoethoxy)-5-(trifluoromethyl)phenyl)indoline-6-carboxamide]	> 7.60	> 7.60	7.10 to 7.30
Cc1cn(-c2cc(NC(=O)c3ccc4c(c3)N(Cc3cnc5cnccn35)CC4C)cc(C(F)(F)F)c2)cn1 (racemic) [Example 26, 1-(imidazo[1,2-a]pyrazin-3-ylmethyl)-3-methyl-N-(3-(4-methyl-1H-imidazol-1-yl)-5-(trifluoromethyl)phenyl)indoline-6-carboxamide]	> 7.60	> 7.60	7.30 to 7.60
O=C(Nc1cc(F)cc(C(F)(F)F)c1)c1ccc2c(c1)N(Cc1ccc3[nH]cnc3c1)CC2 [Example 62, 1-((1H-benzo[d]imidazol-5-yl)methyl)-N-(3-fluoro-5-(trifluoromethyl)phenyl)indoline-6-carboxamide]	7.10 to 7.30	7.30 to 7.60	7.10 to 7.30
Cc1cn(-c2cc(NC(=O)c3ccc4c(c3)N(Cc3ccc5ccncc5c3)CC4)cc(C(F)(F)F)c2)cn1 [Example 5, 1-(isoquinolin-7-ylmethyl)-N-(3-(4-methyl-1H-imidazol-1-yl)-5-(trifluoromethyl)phenyl)indoline-6-carboxamide]	7.10 to 7.30	7.30 to 7.60	7.30 to 7.60
CN1CCC(Oc2ccc(NC(=O)c3ccc4c(c3)N(Cc3cnc5cnccn35)CC4)cc2C(F)(F)F)CC1 [Example 54, 1-(imidazo[1,2-a]pyrazin-3-ylmethyl)-N-(4-((1-methylpiperidin-4-yl)oxy)-3-(trifluoromethyl)phenyl)indoline-6-carboxamide]	> 7.60	> 7.60	7.10 to 7.30
CC(C)(C)c1cc(NC(=O)c2ccc3c(c2)N(Cc2cnc4[nH]ncc4c2)CC3)on1 [Example 78, 1-((1H-pyrazolo[3,4-b]pyridin-5-yl)methyl)-N-(3-(tert-butyl)isoxazol-5-yl)indoline-6-carboxamide]	> 7.60	> 7.60	> 7.60
Cc1cn(-c2cc(NC(=O)c3ccc4c(c3)N(C(=O)c3cnc5cnccn35)CC4)cc(C(F)(F)F)c2)cn1 [Example 13, 1-(imidazo[1,2-a]pyrazine-3-carbony1)-N-(3-(4-methyl-1H-imidazol-1-y1)-5-(trifluoromethyl)phenyl)indoline-6-carboxamide]	> 7.60	> 7.60	7.10 to 7.30
Cc1cn(-c2cc(NC(=O)c3ccc4c(c3)N(Cc3ccc5[nH]ncc5c3)CC4)cc(C(F)(F)F)c2)cn1 [Example 8, 1-((1H-indazol-5-yl)methyl)-N-(3-(4-methyl-1H-imidazol-1-yl)-5-(trifluoromethyl)phenyl)indoline-6-carboxamide]	7.30 to 7.60	7.30 to 7.60	7.10 to 7.30
O=C(Nc1cc(F)cc(OC(F)(F)F)c1)c1ccc2c(c1)N(Cc1cnc3ccccn13)CC2 [Example 56, N-(3-fluoro-5-(trifluoromethoxy)phenyl)-1-(imidazo[1,2-a]pyridin-3-ylmethyl)indoline-6-carboxamide]	> 7.60	> 7.60	7.30 to 7.60
CN(C)Cc1ccc(NC(=O)c2ccc3c(c2)N(Cc2cnc4cnccn24)CC3)cc1C(F)(F)F [Example 48, N-(4-((dimethylamino)methyl)-3-(trifluoromethyl)phenyl)-1-(imidazo[1,2-a]pyrazin-3-ylmethyl)indoline-6-carboxamide]	> 7.60	> 7.60	7.30 to 7.60
O=C(Nc1cc(C(F)(F)F)ncn1)c1ccc2c(c1)N(Cc1cnc3cnccn13)CC2 [Example 88]	> 7.60	> 7.60	7.10 to 7.30
CC(C)(c1cc(NC(=O)c2ccc3c(c2)N(Cc2cnc4cnccn24)CC3)no1)C(F)(F)F [Example 45, 1-(imidazo[1,2-a]pyrazin-3-ylmethyl)-N-(5-(1,1,1-trifluoro-2-methylpropan-2-yl)isoxazol-3-yl)indoline-6-carboxamide]	> 7.60	> 7.60	7.30 to 7.60
O=C(Nc1cc(OCCN2CCCC2)cc(C(F)(F)F)c1)c1ccc2c(c1)N(Cc1cnc3cnccn13)CC2 [Example 52, 1-(imidazo[1,2-a]pyrazin-3-ylmethyl)-N-(3-(2-(pyrrolidin-1-yl)ethoxy)-5-(trifluoromethyl)phenyl)indoline-6-carboxamide]	> 7.60	> 7.60	7.10 to 7.30
CN1CCN(Cc2cc(NC(=O)c3ccc4c(c3)N(C(=O)c3cnc5ccccn35)CC4)cc(C(F)(F)F)c2)CC1 [Example 14, 1-(imidazo[1,2-a]pyridine-3-carbonyl)-N-(3-((4-methylpiperazin-1-yl)methyl)-5-(trifluoromethyl)phenyl)indoline-6-carboxamide]	> 7.60	> 7.60	7.30 to 7.60
O=C(Nc1cccc(OC(F)(F)F)c1)c1ccc2c(c1)N(Cc1ccc3[nH]cnc3c1)CC2 [Example 61, 1-((1H-benzo[d]imidazol-5-yl)methyl)-N-(3-(trifluoromethoxy)phenyl)indoline-6-carboxamide]	7.30 to 7.60	7.30 to 7.60	7.10 to 7.30
O=C(Nc1cccc(C(F)(F)F)c1)c1ccc2c(c1)N(Cc1cnc3cnccn13)CC2 [Example 42, 1-(imidazo[1,2-a]pyrazin-3-ylmethyl)-N-(3-(trifluoromethyl)phenyl)indoline-6-carboxamide]	> 7.60	> 7.60	> 7.60
